Measured values published in patent publication US7812014B2, “Bicyclic 6-alkylidene-penems as β-lactamase inhibitors” (priority 2002, dated 2010).
Counter-ions that a name gives are not always drawn. Like-named read-outs stand apart in the source and are kept apart here.

How the values were obtained:
[1] = target: class B enzyme CcrA (Bacteroides fragilis, UniProt P25910); test: IC50 determination, β-lactamase inhibition (nitrocefin, spectrophotometric); format: biochemical
Method: (§1) IC50 Determination for the Penem Inhibitor
(§2) β-Lactamase inhibitory activity of the penem inhibitors was determined spectrophotometrically as described by Bush et al., [Bush, K., Macalintal, C., Rasmussen, B. A., Lee, V. and Yang, Y. Antimicrobial Agents and Chemotherapy 1993, 37, 851]. Homogeneously purified class A β-lactamases TEM-1 from E. coli and Imi-1 from Enterobacter cloacae, class B enzyme CcrA from Bacteroides fragilis and class C enzyme AmpC from Enterobacter cloaca were employed in the assay. The enzyme concentrations for TEM-1, Imi-1, CcrA and AmpC were 4.3, 7.1, 1.2 and 2.1 nM, respectively. A wide range of inhibitor concentrations were prepared in 50 mM PO4, pH 7.0 to include the possible IC50 values. The substrate used to initiate the enzyme reaction was nitrocefin at 50 μg/ml in the same buffer as the inhibitor. Initially the enzyme and inhibitor (20 μl each) were preincubated for 10 minutes at 25° C. prior to the addition of 160 μl volume of nitrocefin. Initial rates of hydrolysis were monitored for 5 minutes at 495 nm using a Molecular Devices Spectra Max 250 with kinetic protocol of SoftMax Program. Readings from the Spectra Max 250 were exported and transferred to Microsoft Excel. The percent of inhibition of each inhibitor concentration was calculated based on the control enzyme activity. The inhibitor concentration that caused a 50% reduction in the enzymatic activity (IC50) was determined graphically.

[2] = target: class A β-lactamase Imi-1 (Enterobacter cloacae, UniProt Q46991); test: as above; format: biochemical
Method: as §1, §2

[3] = target: class A β-lactamase TEM-1 (Escherichia coli, UniProt P62593); test: as above; format: biochemical, E. coli; settings: enzyme 4.3 nM; 10 minutes preincubation at 25° C.; nitrocefin 50 μg/ml; pH 7.0
Method: as §1, §2

[4] = tested on: Clinical isolates that have been adapted to cause infection in mice; test: In vivo antibacterial protection, 7 day survival of infected mice; parameters: species or system mice strain CD-1
Excerpt: In Vivo Antibacterial Protection
Female mice strain CD-1, approximately 18-22 grams, were received from Charles River Laboratories and quarantined 7 days prior to use. In addition, mice may be rendered neutropenic using cytoxan.
Clinical isolates that have been adapted to cause infection in mice, are used in the experiment, including infections with strains of E. coli, K. pneumoniae, M. morganii, E. cloacae, S. marcescens, C. freundii, staphylococci, streptococci, P. aeruginosa and N. gonorrhoeae.
Mice are challenged by injecting 0.5 ml intraperitoneally or 0.05 ml intranasally of a predetermined bacterial inoculum suspended in broth, saline or hog gastric mucin (supplemented with dried bovine hemoglobin for N. gonorrhoeae). […] Antibacterial doses (dose concentration prepared by two fold serial dilutions of the antibiotic) are dissolved or suspended in 0.2% aqueous agar or methocel, phosphate buffered saline or an adjuvant are administered orally, subcutaneously or intravenously in the following manner: • a) Orally or subcutaneously: Dose volume of 0.5 ml administered ½ hr after infection. A second dose may be administered 3 hr. after infection for treatment of infections with more virulent organisms. • b) Intravenously: Dose volume of 0.2 ml, administered ½ hr. after infection. For the treatment of infections with more virulent organisms, more doses, up to 48 hr may be administered. (Intravenous dosing will not exceed 3 doses/24 hr period.) • c) Oral pretreatment: Under special circumstances, the pH of the stomach needs to be adjusted in order to increase the gastric stability of the antibiotic. For this purpose, 0.5 ml of phosphate buffered saline (pH7.8, 0.06M) (or specific approved adjuvant) is administered orally ½ hr after infection, followed 5 minutes later by 0.5 ml of antibiotic (also orally) contained in phosphate buffered saline (pH7.8, 0.06M). Animal Species
A detailed explanation as to the number of animals needed for the determination of in vivo efficacy follows: • A) Novel antibiotics are tested at 5 different dose levels with 5 mice per dose level at each of three routes of administration (oral, subcutaneous and intravenous). […] This would require 25 mice/route with 3 routes/antibiotic or 75 mice per novel compound tested. One to two novel antibiotics will be tested per experiment (75-150 mice) • B) The effectiveness of the new compound must be compared to that of a standard, or antibiotic of known effectiveness. Known or previously tested antibiotics are tested at 5 dose levels with 5 mice per dose level by a single route of administration, for a total of 25 mice/antibiotic. Usually 3-6 antibiotics will be tested per experiment. (75-150 mice). • C) Untreated controls—In each of the above tests, untreated animals are infected with 3 different concentrations of bacterial inoculum with 10 mice per concentration (30 mice total in each and every test). These untreated controls are used to determine and maintain the infection level between 10-100 LD50s as required for test to test comparison and validity. Determination of Protective Effects of Antibacterial Agents:
The protective effects of the antibacterial agent(s) are measured by the survival of the infected untreated as compared to the treated animals. […] A census of survivors is taken twice daily and at that time dead as well as moribund animals are removed. […] The test is performed three times on separate days to provide a statistically valid number of animals and to minimize variation in test results on a day to day and test to test basis.

[5] = target: class C enzyme AmpC (Enterobacter cloacae, UniProt P05364); test: biochemical; parameters: species or system Enterobacter cloaca
Method: as §1, §2

[6] = enzyme 7.1 nM, 10 minutes preincubation at 25° C., nitrocefin 50 μg/ml, pH 7.0, read-out: IC50 (nM) Class A Imi
[7] = Mus musculus, 168 h, Ratio of Piperacillin vs. Inhibitor not given, read-out: ED50
[8] = enzyme 2.1 nM, 10 minutes preincubation at 25° C., nitrocefin 50 μg/ml, pH 7.0, read-out: IC50 (nM) Class C AmpC
[9] = enzyme 1.2 nM, 10 minutes preincubation at 25° C., nitrocefin 50 μg/ml, pH 7.0, read-out: IC50 (nM) Class B Ccr
[10] = Mus musculus, 168 h, Ratio of Piperacillin vs. Inhibitor 4:1, read-out: ED50

Chain of class A β-lactamase Imi-1 (Q46991 28-292): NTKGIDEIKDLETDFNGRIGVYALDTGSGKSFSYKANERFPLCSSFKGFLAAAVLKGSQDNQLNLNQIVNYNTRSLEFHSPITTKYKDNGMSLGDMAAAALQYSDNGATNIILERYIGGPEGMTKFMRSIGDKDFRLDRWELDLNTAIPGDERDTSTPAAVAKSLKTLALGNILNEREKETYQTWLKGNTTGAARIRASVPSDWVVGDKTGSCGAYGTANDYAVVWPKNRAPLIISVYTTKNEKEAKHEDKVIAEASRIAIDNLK
Chain of class C enzyme AmpC (P05364 21-381): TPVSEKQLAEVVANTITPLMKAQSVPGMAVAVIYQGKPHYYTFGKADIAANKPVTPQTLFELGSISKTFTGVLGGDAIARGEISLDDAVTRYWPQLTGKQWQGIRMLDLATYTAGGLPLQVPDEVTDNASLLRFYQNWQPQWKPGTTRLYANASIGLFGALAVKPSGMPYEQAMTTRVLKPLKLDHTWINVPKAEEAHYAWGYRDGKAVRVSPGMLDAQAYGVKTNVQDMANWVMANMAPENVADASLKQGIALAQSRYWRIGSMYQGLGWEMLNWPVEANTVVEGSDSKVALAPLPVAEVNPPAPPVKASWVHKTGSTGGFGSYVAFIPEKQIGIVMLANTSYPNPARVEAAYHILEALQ
Chain of class B enzyme CcrA (P25910 19-249): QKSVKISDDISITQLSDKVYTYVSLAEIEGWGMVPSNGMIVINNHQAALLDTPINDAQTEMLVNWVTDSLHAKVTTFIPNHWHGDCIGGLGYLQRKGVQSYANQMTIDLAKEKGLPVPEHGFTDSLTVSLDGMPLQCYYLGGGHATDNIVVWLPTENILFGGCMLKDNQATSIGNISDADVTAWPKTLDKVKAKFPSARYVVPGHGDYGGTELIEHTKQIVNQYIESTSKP
Chain of class A β-lactamase TEM-1 (P62593 24-286 limits assumed): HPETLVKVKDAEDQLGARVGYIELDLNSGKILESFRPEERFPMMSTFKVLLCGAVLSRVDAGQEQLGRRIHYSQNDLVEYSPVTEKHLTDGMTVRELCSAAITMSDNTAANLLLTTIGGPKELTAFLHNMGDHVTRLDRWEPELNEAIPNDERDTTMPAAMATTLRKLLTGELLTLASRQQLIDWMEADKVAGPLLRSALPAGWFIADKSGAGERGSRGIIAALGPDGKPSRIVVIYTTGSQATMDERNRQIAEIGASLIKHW

Row | Structure (SMILES) | IC50 [1] | IC50 [2, 6] | IC50 [3] | ED50 [4, 7] | IC50 [5, 8] | IC50 [1, 9] | ED50 [4, 10] | IC50 [5] | ED50 ([4]; Ratio of Piperacillin vs. Inhibitor not given) | IC50 ([5]; read-out: IC50 (nM) Class C AmpC, pH 7) | IC50 [2]
1 | O=C(O)C1=CS[C@@H]2/C(=C\c3cc4n(n3)CCS(=O)(=O)C4)C(=O)N12 [Example 24, (5R),(6Z)-6-(5,5-Dioxo-4,5,6,7-tetrahydro-5λ^6-pyrazolo[5,1-c][1,4]thiazin-2-ylmethylene)-7-oxo-4-thia-1-azabicyclo[3.2.0]hept-2-ene-2-carboxylic acid, sodium salt] | 4 nM | 56 nM | 1.1 nM | 64 mg/kg | 1.5 nM |  |  |  |  |  | 
2 | O=C([O-])C1=CS[C@@H]2/C(=C\c3cc4n(n3)CCSC4)C(=O)N12.[Na+] [Example 11, (5R)(6Z)-6-(6,7-Dihydro-4H-pyrazolo[5,1-c][1,4]thiazin-2-ylmethylene)-7-oxo-4-thia-1-azabicyclo[3.2.0]hept-2-ene-2-carboxylic acid, sodium salt] |  | 18 nM | 1 nM |  |  | 61 nM | 13.9 mg/kg | 1.2 nM |  |  | 
3 | O=C([O-])C1=CS[C@@H]2/C(=C\c3cc4n(n3)CSC4)C(=O)N12.[Na+] [Example 31, (5R)(6Z)-7-Oxo-6-(4H-5-thia-1,6a-diazapentalen-2-ylmethylene)-4-thia-1-azabicyclo[3.2.0]hept-2-ene-2-carboxylic acid, sodium salt] |  | 56 nM | 1.4 nM |  |  | 110 nM |  |  | 20 mg/kg | 1.5 nM | 
4 | O=C([O-])C1=CS[C@@H]2/C(=C\c3cc4n(n3)CCCC4)C(=O)N12.[Na+] [Example 9, (5R)(6Z)-7-Oxo-6-(4,5,6,7-tetrahydropyrazolo[1,5-a]pyridin-2-ylmethylene)-4-thia-1-azabicyclo[3.2.0]hept-2-ene-2-carboxylic acid, sodium salt] |  |  | 2.2 nM |  |  | 62 nM | 31.3 mg/kg | 3.2 nM |  |  | 90 nM
5 | O=C(O)C1=CS[C@@H]2/C(=C\c3cc4c(s3)CCN(Cc3cccnc3)C4)C(=O)N12 [Example 21] |  | 40 nM | 9.8 nM |  | 18 nM | 280 nM |  |  |  |  | 
6 | O=C(O)C1=CS[C@@H]2/C(=C\c3cc4n(n3)CCOC4=O)C(=O)N12 [Example 14, (5R,6Z)-7-oxo-6-[(4-oxo-6,7-dihydro-4H-pyrazolo[5,1-c][1,4]oxazin-2-yl)methylene]-4-thia-1-azabicyclo[3.2.0]hept-2-ene-2-carboxylic Acid] |  | 68 nM | 2.5 nM |  | 3.8 nM | 26 nM |  |  |  |  | 
7 | O=C(O)C1=CS[C@@H]2/C(=C\c3cnc4n3CCSC4)C(=O)N12 [Example 30, (5R),(6Z)-6-(5,6-Dihydro-8-H-imidazo[2,1-c][1,4]thiazin-3-ylmethylene)-7-oxo-4-thia-1-azabicyclo[3.2.0]hept-2-ene-2-carboxylic acid] |  | 2300 nM | 2.9 nM |  | 2.5 nM | 7.8 nM |  |  |  |  | 
8 | CC(=O)N1CCc2sc(/C=C3/C(=O)N4C(C(=O)[O-])=CS[C@H]34)cc2C1.[Na+] (single isomer, unassigned) [Example 34, Sodium salt] |  | 34 nM | 4.2 nM |  | 6.5 nM | 99 nM |  |  |  |  | 
9 | O=C(O)C1=CSC2C(=Cc3cc4c(s3)CCSC4)C(=O)N12 (centres unmarked) [Example 16, 6-(6,7-Dihydro-4H-thieno[3,2-c]thiopyran-2-ylmethylene)-7-oxo-4-thia-1-aza-bicyclo[3.2.0]hept-2-ene-2-carboxylic acid] |  | 25 nM | 3.1 nM |  | 4.2 nM | 12 nM |  |  |  |  | 
10 | CCOC(=O)N1CCc2sc(C=C3C(=O)N4C(C(=O)O)=CSC34)cc2C1 (centres unmarked) [Example 18, 2-(2-Carboxy-7-oxo-4-thia-1-aza-bicyclo[3.2.0]hept-2-en-6-ylidenemethyl)-6,7-dihydro-4H-thieno[3,2-c]pyridine-5-carboxylic acid ethyl ester] |  | 50 nM | 2.8 nM |  | 9.2 nM | 120 nM |  |  |  |  | 
11 | O=C([O-])C1=CS[C@@H]2/C(=C\c3cc4n(n3)CCS4)C(=O)N12.[Na+] [Example 32, (5R)(6Z)-6-(2,3-Dihydropyrazolo[5,1-b]thiazol-6-ylmethylene)-7-oxo-4-thia-1-azabicyclo[3.2.0]hept-2-ene-2-carboxylic acid, sodium salt] |  |  |  | 46 mg/kg |  |  |  |  |  |  | 
12 | O=C(O)C1=CSC2C(=Cc3cc4c(s3)CCOC4)C(=O)N12 (centres unmarked) [Example 15, 6-(6,7-Dihydro-4H-thieno[3,2-c]pyran-2-ylmethylene)-7-oxo-4-thia-1-aza-bicyclo[3.2.0]hept-2-ene-2-carboxylic acid] |  | 8.6 nM | 1.2 nM |  | 3.8 nM | 14 nM |  |  |  |  | 
13 | O=C(O)C1=CS[C@@H]2/C(=C\c3cn4c(n3)CN(Cc3ccccc3)CC4)C(=O)N12 [Example 20, (5R),(6Z)-6-(7-Benzyl-5,6,7,8-tetrahydroimidazo[1,2-a]pyrazin-2-ylmethylene)-7-oxo-4-thia-1-azabicyclo[3.2.0]hept-2-ene-2-carboxylic acid, sodium salt] |  | 9.6 nM | 1.4 nM |  | 3.1 nM | 18 nM |  |  |  |  | 
14 | O=C([O-])C1=CS[C@@H]2/C(=C\c3cc4n(n3)CSCC4)C(=O)N12.[Na+] [Example 28, (5R)(6Z)-6-(4,5-Dihydro-6-thia-1,7a-diazainden-2-ylmethylene)-7-oxo-4-thia-1-azabicyclo[3.2.0]hept-2-ene-2-carboxylic acid, sodium salt] |  |  |  | 31 mg/kg |  |  |  |  |  |  | 
15 | O=C(O)C1=CS[C@@H]2/C(=C\c3cc4n(n3)CCC4)C(=O)N12 [Example 8, (5R),(6Z)-6-(5,6-Dihydro-4H-pyrrolo[1,2-b]pyrazol-2-ylmethylene)-7-oxo-4-thia-1-azabicyclo[3.2.0]hept-2-ene-2-carboxylic acid, sodium salt] |  | 50 nM | 1.2 nM |  | 1.5 nM | 14 nM |  |  |  |  | 
16 | CN1Cc2nc(/C=C3/C(=O)N4C(C(=O)O)=CS[C@H]34)cn2CC1=O [Example 10, (5R),(6Z)-6-(7-Methyl-6-oxo-5,6,7,8-tetrahydro-imidazo[1,2-a]pyrazin-2-ylmethylene)-7-oxo-4-thia-1-aza-bicyclo[3.2.0]hept-2-ene-2-carboxylic acid sodium salt] |  | 65 nM | 10 nM |  | 3 nM | 140 nM |  |  |  |  | 
